The source of these data is patent US10105357B2, “Indication of antibiotic drugs for preparation of cancer inhibition pharmaceutical composition” (LAUNX BIOMEDICAL CO., LTD., priority 2014, dated 2018).

The structures appear in SMILES notation. Like-named read-outs stand apart in the source and are kept apart here.

What all share (format): cell-based, human
The subject of one test is cancer cell lines. Put plainly: Cell viability analysis (WST-1) on cancer cell lines. Conditions: drug 10 μM, 72 hours, WST-1; Table 3.
Test [1] has as its system HI650 (Lung Adenocarcinoma). Put plainly: Cell viability analysis, lung cancer HI650. Conditions: Homo sapiens.
Test [2] concerns A549 (Lung Adenocarcinoma). Briefly: Cell viability analysis, lung cancer A549. To be noted: Homo sapiens.
Test [3] relates to AGS (Gastric Adenocarcinoma). Briefly: Cell viability analysis, gastric cancer AGS. Conditions: Homo sapiens.
Test [4] deals with MKN-45 (Gastric Adenocarcinoma). Briefly: Cell viability analysis, gastric cancer MKN-45. To be noted: Homo sapiens.
For test [5], the system named is HepG2 (Hepatocellular Carcinoma). Put plainly: Cell viability analysis, hepatic cancer HepG2. To be noted: Homo sapiens.
Test [6] deals with LoVo (Colorectal Adenocarcinoma). Put plainly: Cell viability analysis, colon cancer LoVo. Conditions: Homo sapiens, LoVo.
Test [7] relates to A375 (Amelanotic Melanoma). Briefly: Cell viability analysis, skin cancer A375. To be noted: Homo sapiens.
Test [8] relates to HeLa (Cervix Adenocarcinoma). Put plainly: Cell viability analysis, cervical cancer HeLa. Conditions: Homo sapiens, HeLa.
The subject of test [9] is PC3 (p53−) (Prostate Adenocarcinoma). Put plainly: Cell viability analysis, prostate cancer PC3. Conditions: Homo sapiens.
Test [10] relates to TSGH-8301 (Urinary Bladder Carcinoma). Put plainly: Cell viability analysis, bladder cancer TSGH-8301. Conditions: Homo sapiens.
Test [11] has as its system MCF7 (Mammary Gland, Adenocarcinoma). Put plainly: Cell viability analysis, breast cancer MCF7. To be noted: Homo sapiens.
The test system of test [12] is HL-60 (Acute Promyelocytic Leukemia). Briefly: Cell viability analysis, leukemia HL-60. To be noted: Homo sapiens.
Where [13] appears, read: NCI-H1650, 72 h, read-out: cell viability (survival rate), H1650, drug 10 μM, 72 hours, WST-1, OD450 nm.
Where [14] appears, read: A549, 72 h, read-out: cell viability (survival rate), A549, drug 10 μM, 72 hours, WST-1, OD450 nm.
The mark [15] stands for this setting: 72 h, read-out: cell viability (survival rate), AGS, drug 10 μM, 72 hours, WST-1, OD450 nm.
The mark [16] stands for this setting: MKN-45, 72 h, read-out: cell viability (survival rate), MKN-45, drug 10 μM, 72 hours, WST-1, OD450 nm.
The mark [17] stands for this setting: HepG2, 72 h, read-out: cell viability (survival rate), HepG2, drug 10 μM, 72 hours, WST-1, OD450 nm.
[18] abbreviates: 72 h, read-out: cell viability (survival rate), LoVo, drug 10 μM, 72 hours, WST-1, OD450 nm.
Where [19] appears, read: A-375, 72 h, read-out: cell viability (survival rate), A375, drug 10 μM, 72 hours, WST-1, OD450 nm.
[20] abbreviates: 72 h, read-out: cell viability (survival rate), HeLa, drug 10 μM, 72 hours, WST-1, OD450 nm.
The mark [21] stands for this setting: 72 h, read-out: cell viability (survival rate), PC3, drug 10 μM, 72 hours, WST-1, OD450 nm.
[22] abbreviates: 72 h, read-out: cell viability (survival rate), TSGH, drug 10 μM, 72 hours, WST-1, OD450 nm.
Where [23] appears, read: MCF7, 72 h, read-out: cell viability (survival rate), MCF7, drug 10 μM, 72 hours, WST-1, OD450 nm.
Setting [24] is: HL-60, 72 h, read-out: cell viability (survival rate), HL-60, drug 10 μM, 72 hours, WST-1, OD450 nm.
[25] abbreviates: NCI-H1650, 72 h, drug 10 μM, 72 hours, WST-1, OD450 nm, read-out: cell viability (survival rate), H1650.
The mark [26] stands for this setting: A549, 72 h, drug 10 μM, 72 hours, WST-1, OD450 nm, read-out: cell viability (survival rate), A549.
The mark [27] stands for this setting: 72 h, drug 10 μM, 72 hours, WST-1, OD450 nm, read-out: cell viability (survival rate), AGS.
Where [28] appears, read: MKN-45, 72 h, drug 10 μM, 72 hours, WST-1, OD450 nm, read-out: cell viability (survival rate), MKN-45.
Where [29] appears, read: HepG2, 72 h, drug 10 μM, 72 hours, WST-1, OD450 nm, read-out: cell viability (survival rate), HepG2.
[30] abbreviates: A-375, 72 h, drug 10 μM, 72 hours, WST-1, OD450 nm, read-out: cell viability (survival rate), A375.
The mark [31] stands for this setting: 72 h, drug 10 μM, 72 hours, WST-1, OD450 nm, read-out: cell viability (survival rate), HeLa.
Where [32] appears, read: 72 h, drug 10 μM, 72 hours, WST-1, OD450 nm, read-out: cell viability (survival rate), PC3.
Setting [33] is: 72 h, drug 10 μM, 72 hours, WST-1, OD450 nm, read-out: cell viability (survival rate), TSGH.
The mark [34] stands for this setting: MCF7, 72 h, drug 10 μM, 72 hours, WST-1, OD450 nm, read-out: cell viability (survival rate), MCF7.
Setting [35] is: HL-60, 72 h, drug 10 μM, 72 hours, WST-1, OD450 nm, read-out: cell viability (survival rate), HL-60.

Regarding `CC(=O)Oc1cc(C(F)(F)F)ccc1C(=O)O` [Triflusal], the “inhibition effect on different cancer cell lines” value with cancer cell lines is listed as “significant inhibition effect”. Further, the viability at 10 µM in test [1] (setting [13]) came to 81.3%; in test [2] (setting [14]) it was 112%; in test [3] (setting [15]), 93.3%; in test [4] (setting [16]), 134%; in test [5] (setting [17]), 103%; in test [6] (setting [18]) it was 103%. Besides, the viability at 10 µM in test [7] (setting [19]) came to 95.9%; in [8] (setting [20]), 105%; in test [9] (setting [21]), 87.5%; in test [10] (setting [22]), 86.5%; in test [11] (setting [23]) it was 97.8%; in test [12] (setting [24]) it was 93.3%.
Take `C[C@@H]1C/C=C/C=C/C=C/C=C/[C@H](O[C@@H]2O[C@H](C)[C@@H](O)[C@H](N)[C@@H]2O)C[C@@H]2O[C@](O)(C[C@@H](O)C[C@H]3O[C@@H]3/C=C/C(=O)O1)C[C@H](O)[C@H]2C(=O)O` [Natamycin (Pimaricin), Natamycin]: the “inhibition effect on different cancer cell lines” value with cancer cell lines is “significant inhibition effect”. The viability at 10 µM in test [1] (setting [13]) is 57%; in test [2] (setting [14]), 62.6%; in [3] (setting [15]), 40.9%; in test [4] (setting [16]), 67.1%; in test [5] (setting [17]), 95.3%; in test [6] (setting [18]) it was 84.8%. Also, the viability at 10 µM was determined as 82.1% in test [7] (setting [19]); 93.5% in [8] (setting [20]); 70% in test [9] (setting [21]); 84.9% in test [10] (setting [22]); 83.2% in test [11] (setting [23]); 107% in [12] (setting [24]).
On to `C[N+]1(C)[C@@H]2C[C@@H](OC(=O)C(O)(c3cccs3)c3cccs3)C[C@H]1[C@@H]1O[C@@H]12` [Tiotropium Bromide hydrate], for which, in the test on cancer cell lines, the “inhibition effect on different cancer cell lines” value is given as “significant inhibition effect”. For the same molecule, the viability at 10 µM was 40.9% in test [1] (setting [13]); 62% in [2] (setting [14]); 73.1% in test [3] (setting [15]); 86.1% in test [4] (setting [16]); 90.9% in test [5] (setting [17]); 88.7% in [6] (setting [18]). Besides, the viability at 10 µM in test [7] (setting [19]) amounted to 86.3%; in test [8] (setting [20]) it was 124%; in test [9] (setting [21]), 83.8%; in [10] (setting [22]), 54.7%; in test [11] (setting [23]), 80%; in test [12] (setting [24]), 87.8%.
In the case of `CN1CCC(=C2c3ccccc3CCc3cccnc32)CC1` [Azatadine dimaleate], the “inhibition effect on different cancer cell lines” value with cancer cell lines is listed as “significant inhibition effect”. For the same molecule, the viability at 10 µM in [1] (setting [25]) was 48.5%; in [2] (setting [26]), 123%; in [3] (setting [27]), 67.1%; in [4] (setting [28]) it was 83.4%; in [5] (setting [29]), 84.5%; in [6] (setting [18]), 95.7%. In addition, the viability at 10 µM worked out at 40.7% in test [7] (setting [30]); 72.2% in [8] (setting [31]); 104% in test [9] (setting [32]); 78.5% in [10] (setting [33]); 79.7% in test [11] (setting [34]); 113% in [12] (setting [35]).
As for `O=C(N/N=C/c1ccc([N+](=O)[O-])o1)c1ccc(O)cc1` [Nifuroxazide], the “inhibition effect on different cancer cell lines” value with cancer cell lines was “significant inhibition effect”. Moreover, the viability at 10 µM in test [1] (setting [13]) was 57.6%; in [2] (setting [14]), 33.2%; in test [3] (setting [15]), 36.7%; in [4] (setting [16]), 51%; in [5] (setting [17]), 73%; in test [6] (setting [18]), 58.3%. Besides, the viability at 10 µM stood at 51.6% in test [7] (setting [19]); 66.6% in [8] (setting [20]); 92% in test [9] (setting [21]); 56.2% in [10] (setting [22]); 80.1% in [11] (setting [23]); 38.8% in test [12] (setting [24]).
Regarding `CCCc1cc(C(N)=S)ccn1` [Protionamide (Prothionamide), Protionamide], in the test on cancer cell lines, the “inhibition effect on different cancer cell lines” value is reported as “significant inhibition effect”. For the same molecule, the viability at 10 µM in test [1] (setting [25]) worked out at 85%; in [2] (setting [26]), 66.2%; in [3] (setting [27]), 85.9%; in test [4] (setting [28]) it was 77.6%; in test [5] (setting [29]) it was 118%; in test [6] (setting [18]) it was 85.6%. For the same molecule, the viability at 10 µM in test [7] (setting [30]) was 84.9%; in test [8] (setting [31]) it was 97.5%; in test [9] (setting [32]) it was 45.2%; in test [10] (setting [33]), 103%; in [11] (setting [34]), 51.2%; in [12] (setting [35]), 97.6%.
With `Nc1nc(O)c2ncn(COC(CO)CO)c2n1` [Ganciclovir], in the test with cancer cell lines, the “inhibition effect on different cancer cell lines” value is recorded as “significant inhibition effect”. For the same molecule, the viability at 10 µM is 97.3% in [1] (setting [13]); 104% in [2] (setting [14]); 106% in [3] (setting [15]); 87% in test [4] (setting [16]); 109% in test [5] (setting [17]); 99.9% in [6] (setting [18]). In addition, the viability at 10 µM in [7] (setting [19]) is 94.8%; in test [8] (setting [20]), 107%; in test [9] (setting [21]), 71.8%; in test [10] (setting [22]), 103%; in test [11] (setting [23]), 68.6%; in [12] (setting [24]) it was 98.7%.
Take `COc1cccc(N(C)C(=S)Oc2ccc3c(c2)CCCC3)n1` [Liranaftate]: the “inhibition effect on different cancer cell lines” value in the test with cancer cell lines is listed as “significant inhibition effect”. For the same molecule, the viability at 10 µM amounted to 50.7% in test [1] (NCI-H1650, drug 10 μM, 72 hours, WST-1, OD450 nm, read-out: cell viability (survival rate), H1650); 67.1% in test [2] (A549, drug 10 μM, 72 hours, WST-1, OD450 nm, read-out: cell viability (survival rate), A549); 73.6% in test [3] (drug 10 μM, 72 hours, WST-1, OD450 nm, read-out: cell viability (survival rate), AGS); 76.7% in test [4] (MKN-45, drug 10 μM, 72 hours, WST-1, OD450 nm, read-out: cell viability (survival rate), MKN-45); 79.8% in test [5] (HepG2, drug 10 μM, 72 hours, WST-1, OD450 nm, read-out: cell viability (survival rate), HepG2); 86.6% in test [6] (drug 10 μM, 72 hours, WST-1, OD450 nm, read-out: cell viability (survival rate), LoVo). The viability at 10 µM in [7] (A-375, drug 10 μM, 72 hours, WST-1, OD450 nm, read-out: cell viability (survival rate), A375) came out at 84.5%; in test [8] (drug 10 μM, 72 hours, WST-1, OD450 nm, read-out: cell viability (survival rate), HeLa) it was 89%; in test [9] (drug 10 μM, 72 hours, WST-1, OD450 nm, read-out: cell viability (survival rate), PC3), 92.7%; in test [10] (drug 10 μM, 72 hours, WST-1, OD450 nm, read-out: cell viability (survival rate), TSGH) it was 108%; in test [11] (MCF7, drug 10 μM, 72 hours, WST-1, OD450 nm, read-out: cell viability (survival rate), MCF7), 84.8%; in test [12] (HL-60, drug 10 μM, 72 hours, WST-1, OD450 nm, read-out: cell viability (survival rate), HL-60) it was 92%.
